Here are results for three compounds from patent publication US4000262A, “5-Epi-amino and 5-epi-azido-4,6-di-O-(aminoglycosyl)-2,5-dideoxystreptamines 1-N-alkyl-5-epi-amino and 1-N-alkyl-5-epi-azido-4,6-di-O-(aminoglycosyl)-2,5-dideoxystreptamines” (priority 1975, dated 1976).

For data set [1], the system named is gram positive bacteria and gram negative bacteria. The experiment in a line: antibacterial activity (general statements, standard dilution tests). It counts as cell-based. Conditions: gram negative organisms resistant to the 5-hydroxy precursors.
The next data set has as its system Streptococcus pyogenes C. The experiment in a line: in vitro minimal inhibitory concentration, standard tube dilution method. The data set is classed as cell-based. The source says:
In Table 1, set forth below is shown the in vitro minimal inhibitory concentration (MIC) of gentamicin C2a against representative gram-positive and gram-negative bacteria. The results are derived using the standard tube dilution method in Mueller-Hinton broth.
In Table 2, set forth below is shown the in vitro minimal inhibitory concentration (MIC) of gentamicin C2b against representative gram-positive and gram-negative bacteria. The results are derived using the standard tube dilution method in Mueller-Hinton broth.

Data set [2] deals with gram-positive and gram-negative bacteria. Briefly: in vitro antibacterial spectrum / activity compared with gentamicin C components. It counts as cell-based. Conditions: as the free base.
Data set [3] can be described thus: acute intravenous toxicity. Conditions: mouse, in vivo, male CF-1 mice weighing 20 grams each.

In brackets after ≈: the same amount, converted by molar mass. Like-named read-outs stand apart in the source and are kept apart here.

`CNC1C(O)C(OC2C(N)CC(N)C(OC3OC(CN)CCC3N)C2N)OCC1(C)O` (stereo not drawn) [5-epi-amino-5-deoxygentamicin C1a]: in data set [1], the cidal activity entry is recorded as “cidal against certain gram negative organisms which are resistant to the 5-hydroxy precursors”. Turning to `CN[C@@H]1[C@@H](O)[C@@H](O[C@@H]2[C@@H](O)[C@H](O[C@H]3O[C@H]([C@H](C)N)CC[C@H]3N)[C@@H](N)C[C@H]2N)OC[C@]1(C)O` [gentamicin C2a], in the data set with Streptococcus pyogenes C, the lowest concentration to inhibit growth (MIC) was 7.5 µg/mL (≈ 16.2 µM). For the same compound, the “activity relative to the gentamicin "C" complex” value in data set [2] is on record as “about 74%”. The LD50 in data set [3] was determined as 110 mg/kg. As to `CNC[C@@H]1CC[C@@H](N)[C@@H](O[C@H]2[C@H](O)[C@@H](O[C@H]3OC[C@](C)(O)[C@H](NC)[C@H]3O)[C@H](N)C[C@@H]2N)O1` [gentamicin C2b], in the data set on Streptococcus pyogenes C (Mueller-Hinton broth, read-out: MIC), the minimum inhibitory concentration (MIC) was determined as 3 µg/mL (≈ 6.47 µM).
